Measured values reported in patent publication US5362634A, “Process for producing A83543 compounds” (DowElanco, priority 1991, dated 1994).
Converted amounts (≈) assume the structure as drawn. Like-named read-outs stand apart in the source and are kept apart here.

Columns and labels:
[1] = test system: first instar yellow fever mosquito larvae; experiment: In vitro mosquito larvicide test, first instar; conditions: Aedes aegypti, 24 h, lowest concentration with 100% inhibition after 24 hr, microtiter plates, read-out: Minimal Inhibitory Concentration
Description: The A83543 components were active against yellow fever mosquito (Aedes aegypti) larvae in standard in vitro mosquito larvicide tests.

CLH (corn leafhopper) = experiment: Greenhouse test against CLH; format: in vivo, Dalbulus maidis
Procedure: (§1) Each test compound was formulated by dissolving the compound in an acetone/alcohol (1:1) mixture containing 23 g of "Toximul R" (sulfonate/nonionic emulsifier blend) and 13 g of "Toximul S" (sulfonate/nonionic emulsifier blend) per liter. These mixtures were then diluted with water to give the indicated concentrations.
(§2) Additional insects were evaluated using similar formulations and evaluation procedures, with the exceptions noted.
After standard exposure periods, percent mortality was evaluated.

adult stable fly (ASF) = experiment: Guinea pig systemic test, adult stable fly; format: in vivo, Stomoxys calcitrans
Procedure: Adult guinea pigs are used in this test system. The compounds to be tested are dissolved in aqueous polyvinyl pyrrolidone or in polyethylene glycol 200, and an appropriate amount of the solution is administered either orally or by intraperitoneal injection.
(§3) Blood is drawn from the guinea pigs at 30 minutes except as noted, and the samples of blood are centrifuged. Dental wicks are saturated with the blood serum, and then exposed in Petri dishes to adult stable flies; blow fly larvae are exposed in test tubes. After 24 and 48 hours, the insects are examined, and the number of dead are counted. The results of the tests are recorded as the percent of the insects which are killed.

SAW (Southern armyworm) = experiment: Greenhouse test against SAW; format: in vivo; conditions: Spodoptera eridania, bushbean
[2] = test system: neonate CBW (cotton bollworm) larvae; experiment: Surface-treated diet test against neonate CBW larvae; format: in vivo, Heliothis zea
Procedure: as §1, §2
(§4) After standard exposure periods, percent mortality was evaluated. The following abbreviations are used:
^b Mean of two replicates tested
^d Diet is surface treated with A83543A, allowed to dry and infested

[3] = test system: mixture of soybean loopers (75%) and fall armyworm (25%); experiment: Field trial, soybean loopers and fall armyworm on soybean; format: in vivo
Procedure: A83543A was evaluated in field trials.

[4] = test system: SAW (Southern armyworm) larvae; experiment: Topical test against SAW larvae; format: in vivo; conditions: Spodoptera eridania
Procedure: as §1, §2, §4
^a Days between treatment and observation
^b Mean of replicates tested
^f Treated topically with 1 mL of formulated A83543A

larval blow fly = experiment: Insecticidal assay in blood of sheep challenged with Haemonchus contortus, larval blow fly; format: in vivo
Procedure: as §3
Tests are carried out in sheep using the test method described supra in the Guinea Pig Test description. […]
^b Amount (mg/kg) times number of doses administered
^c Times postadministration at which blood is drawn

## CC[C@H]1CCC[C@H](O[C@H]2CC[C@H](N(C)C)[C@@H](C)O2)[C@@H](C)C(=O)C2=C[C@@H]3[C@@H](C=C[C@@H]4C[C@@H](O[C@@H]5O[C@@H](C)[C@H](OC)[C@@H](OC)[C@H]5OC)C[C@@H]34)[C@@H]2CC(=O)O1 [A83543A]
[1]
  MIC: 0.016 µg/mL (≈ 0.0219 µM)
[1]; second of two lots
  MIC: 0.031 µg/mL (≈ 0.0424 µM)
CLH (corn leafhopper); 50 ppm
  inhibition at 50 ppm: 0%
CLH (corn leafhopper); 100 ppm
  inhibition at 100 ppm: 30%
CLH (corn leafhopper); 200 ppm
  inhibition at 200 ppm: 90%
Adult stable fly (ASF); 10 mg/kg IP, bled 30 min
  % Activity ASF: 0%
Adult stable fly (ASF); 10 mg/kg IP, bled 5 hr
  % Activity ASF: 0%
Adult stable fly (ASF); 10 mg/kg IP, bled 24 hr
  % Activity ASF: 0%
Adult stable fly (ASF); 20 mg/kg IP, bled 30 min
  % Activity ASF: 0%
Adult stable fly (ASF); 20 mg/kg IP, bled 5 hr
  % Activity ASF: 0%
Adult stable fly (ASF); 20 mg/kg IP, bled 24 hr
  % Activity ASF: 0%
Adult stable fly (ASF); 30 mg/kg IP, bled 30 min
  % Activity ASF: 50%
Adult stable fly (ASF); 30 mg/kg IP, bled 5 hr
  % Activity ASF: 0%
Adult stable fly (ASF); 30 mg/kg IP, bled 24 hr
  % Activity ASF: 0%
Adult stable fly (ASF); 50 mg/kg IP, bled 30 min
  % Activity ASF: 100%
Adult stable fly (ASF); 50 mg/kg IP, bled 5 hr
  % Activity ASF: 40%
Adult stable fly (ASF); 50 mg/kg IP, bled 24 hr
  % Activity ASF: 30%
Adult stable fly (ASF); 50 mg/kg oral, bled 5 hr
  % Activity ASF: 60%
Adult stable fly (ASF); 50 mg/kg oral, bled 24 hr
  % Activity ASF: 0%
Adult stable fly (ASF); Stomoxys calcitrans, in Cavia porcellus, 10 mg/kg IP
  mortality at 10 mg/kg: 0%
Adult stable fly (ASF); Stomoxys calcitrans, in Cavia porcellus, 20 mg/kg IP
  mortality at 20 mg/kg: 0%
Adult stable fly (ASF); Stomoxys calcitrans, in Cavia porcellus, 30 mg/kg IP
  mortality at 30 mg/kg: 50%
Adult stable fly (ASF); Stomoxys calcitrans, in Cavia porcellus, 50 mg/kg IP
  mortality at 50 mg/kg: 100%
Adult stable fly (ASF); Stomoxys calcitrans, in Cavia porcellus, 50 mg/kg OR (oral), 5-hr blood sample
  mortality at 50 mg/kg: 60%
SAW (Southern armyworm); 12.5 ppm
  inhibition at 12.5 ppm: 0%
SAW (Southern armyworm); 25 ppm
  inhibition at 25 ppm: 40%
SAW (Southern armyworm); 50 ppm
  inhibition at 50 ppm: 80%
SAW (Southern armyworm); 100 ppm
  inhibition at 100 ppm: 100%
[2]; 72 h, 3 days, 0.50 ppm
  inhibition at 0.5 ppm: 15%
[2]; 72 h, 3 days
  inhibition at 1 ppm: 45%
  inhibition at 5 ppm: 100%
  inhibition at 10 ppm: 100%
  inhibition at 50 ppm: 100%
[2]; 96 h, 4 days
  inhibition at 1 ppm: 30%
  inhibition at 5 ppm: 100%
  inhibition at 10 ppm: 100%
  inhibition at 50 ppm: 100%
[2]; 96 h, 4 days, 100.00 ppm
  inhibition at 100 ppm: 100%
[3]
  activity in field trials: showed activity
[4]; 24 h, second instar, 1 day
  inhibition at 1 ppm: 0%
  inhibition at 5 ppm: 0%
  inhibition at 10 ppm: 0%
  inhibition at 50 ppm: 80%
  inhibition at 100 ppm: 100%
[4]; 48 h, fifth instar, 2 days
  inhibition at 10 ppm: 0%
  inhibition at 50 ppm: 0%
[4]; 48 h, third instar, 2 days
  inhibition at 1 ppm: 0%
  inhibition at 5 ppm: 0%
  inhibition at 10 ppm: 13.3%
  inhibition at 50 ppm: 73.3%
[4]; 72 h, neonate, 3 days
  inhibition at 1 ppm: 0%
  inhibition at 5 ppm: 60%
  inhibition at 10 ppm: 100%
  inhibition at 50 ppm: 100%
  inhibition at 100 ppm: 100%
Larval blow fly; 1 × 1 mg/kg IV, 35 min, L, 24-hour exposure
  Percent Insecticide Mortality: 25%
Larval blow fly; 1 × 1 mg/kg IV, 35 min, L, 48-hour exposure
  Percent Insecticide Mortality: 25%
Larval blow fly; 1 × 1 mg/kg IV, 5 hr, L, 24-hour exposure
  Percent Insecticide Mortality: 10%
Larval blow fly; 1 × 1 mg/kg IV, 5 hr, L, 48-hour exposure
  Percent Insecticide Mortality: 10%
Larval blow fly; 1 × 1 mg/kg IV, Day 0, L, 24-hour exposure
  Percent Insecticide Mortality: 0%
Larval blow fly; 1 × 1 mg/kg IV, Day 0, L, 48-hour exposure
  Percent Insecticide Mortality: 0%
Larval blow fly; 1 × 1 mg/kg IV, Day 1, L, 24-hour exposure
  Percent Insecticide Mortality: 0%
Larval blow fly; 1 × 1 mg/kg IV, Day 1, L, 48-hour exposure
  Percent Insecticide Mortality: 0%
Larval blow fly; 1 × 1 mg/kg IV, Day 2, L, 24-hour exposure
  Percent Insecticide Mortality: 0%
Larval blow fly; 1 × 1 mg/kg IV, Day 2, L, 48-hour exposure
  Percent Insecticide Mortality: 0%
Larval blow fly; 1 × 1 mg/kg IV, Day 3, L, 24-hour exposure
  Percent Insecticide Mortality: 0%
Larval blow fly; 1 × 1 mg/kg IV, Day 3, L, 48-hour exposure
  Percent Insecticide Mortality: 0%
Larval blow fly; 1 × 1 mg/kg IV, Day 4, L, 24-hour exposure
  Percent Insecticide Mortality: 0%
Larval blow fly; 1 × 1 mg/kg IV, Day 4, L, 48-hour exposure
  Percent Insecticide Mortality: 0%
Larval blow fly; 1 × 1 mg/kg IV, Day 5, L, 24-hour exposure
  Percent Insecticide Mortality: 0%
Larval blow fly; 1 × 1 mg/kg IV, Day 5, L, 48-hour exposure
  Percent Insecticide Mortality: 0%
Larval blow fly; 25 × 2 mg/kg IR, 35 min, L, 24-hour exposure
  Percent Insecticide Mortality: 0%
Larval blow fly; 25 × 2 mg/kg IR, 35 min, L, 48-hour exposure
  Percent Insecticide Mortality: 0%
Larval blow fly; 25 × 2 mg/kg IR, 5 hr, L, 24-hour exposure
  Percent Insecticide Mortality: 25%
Larval blow fly; 25 × 2 mg/kg IR, 5 hr, L, 48-hour exposure
  Percent Insecticide Mortality: 50%
Larval blow fly; 25 × 2 mg/kg IR, Day 0, L, 24-hour exposure, 0 min
  Percent Insecticide Mortality: 0%
Larval blow fly; 25 × 2 mg/kg IR, Day 0, L, 48-hour exposure
  Percent Insecticide Mortality: 0%
Larval blow fly; 25 × 2 mg/kg IR, Day 1, L, 24-hour exposure
  Percent Insecticide Mortality: 100%
Larval blow fly; 25 × 2 mg/kg IR, Day 1, L, 48-hour exposure
  Percent Insecticide Mortality: 100%
Larval blow fly; 25 × 2 mg/kg IR, Day 2, L, 24-hour exposure
  Percent Insecticide Mortality: 90%
Larval blow fly; 25 × 2 mg/kg IR, Day 2, L, 48-hour exposure
  Percent Insecticide Mortality: 100%
Larval blow fly; 25 × 2 mg/kg IR, Day 3, L, 24-hour exposure
  Percent Insecticide Mortality: 90%
Larval blow fly; 25 × 2 mg/kg IR, Day 3, L, 48-hour exposure
  Percent Insecticide Mortality: 100%
Larval blow fly; 25 × 2 mg/kg IR, Day 4, L, 24-hour exposure
  Percent Insecticide Mortality: 60%
Larval blow fly; 25 × 2 mg/kg IR, Day 4, L, 48-hour exposure
  Percent Insecticide Mortality: 90%
Larval blow fly; 25 × 2 mg/kg IR, Day 5, L, 24-hour exposure
  Percent Insecticide Mortality: 50%
Larval blow fly; 25 × 2 mg/kg IR, Day 5, L, 48-hour exposure
  Percent Insecticide Mortality: 75%
Larval blow fly; 50 × 1 mg/kg IP, 35 min, L, 24-hour exposure
  Percent Insecticide Mortality: 0%
Larval blow fly; 50 × 1 mg/kg IP, 35 min, L, 48-hour exposure
  Percent Insecticide Mortality: 10%
Larval blow fly; 50 × 1 mg/kg IP, 5 hr, L, 24-hour exposure
  Percent Insecticide Mortality: 10%
Larval blow fly; 50 × 1 mg/kg IP, 5 hr, L, 48-hour exposure
  Percent Insecticide Mortality: 10%
Larval blow fly; 50 × 1 mg/kg IP, Day 0, L, 24-hour exposure, 0 min
  Percent Insecticide Mortality: 0%
Larval blow fly; 50 × 1 mg/kg IP, Day 0, L, 48-hour exposure
  Percent Insecticide Mortality: 0%
Larval blow fly; 50 × 1 mg/kg IP, Day 1, L, 24-hour exposure
  Percent Insecticide Mortality: 10%
Larval blow fly; 50 × 1 mg/kg IP, Day 1, L, 48-hour exposure
  Percent Insecticide Mortality: 10%
Larval blow fly; 50 × 1 mg/kg IP, Day 2, L, 24-hour exposure, 2880 min
  Percent Insecticide Mortality: 20%
Larval blow fly; 50 × 1 mg/kg IP, Day 2, L, 48-hour exposure
  Percent Insecticide Mortality: 20%
Larval blow fly; 50 × 1 mg/kg IP, Day 3, L, 24-hour exposure, 4320 min
  Percent Insecticide Mortality: 20%
Larval blow fly; 50 × 1 mg/kg IP, Day 3, L, 48-hour exposure
  Percent Insecticide Mortality: 20%
Larval blow fly; 50 × 1 mg/kg IP, Day 4, L, 24-hour exposure, 5760 min
  Percent Insecticide Mortality: 10%
Larval blow fly; 50 × 1 mg/kg IP, Day 4, L, 48-hour exposure
  Percent Insecticide Mortality: 20%
Larval blow fly; 50 × 1 mg/kg IP, Day 5, L, 24-hour exposure, 7200 min
  Percent Insecticide Mortality: 10%
Larval blow fly; 50 × 1 mg/kg IP, Day 5, L, 48-hour exposure
  Percent Insecticide Mortality: 25%
Larval blow fly; 50 × 1 mg/kg IR, 35 min, L, 24-hour exposure
  Percent Insecticide Mortality: 0%
Larval blow fly; 50 × 1 mg/kg IR, 35 min, L, 48-hour exposure
  Percent Insecticide Mortality: 0%
Larval blow fly; 50 × 1 mg/kg IR, 5 hr, L, 24-hour exposure
  Percent Insecticide Mortality: 40%
Larval blow fly; 50 × 1 mg/kg IR, 5 hr, L, 48-hour exposure
  Percent Insecticide Mortality: 75%
Larval blow fly; 50 × 1 mg/kg IR, Day 0, L, 24-hour exposure, 0 min
  Percent Insecticide Mortality: 0%
Larval blow fly; 50 × 1 mg/kg IR, Day 0, L, 48-hour exposure
  Percent Insecticide Mortality: 0%
Larval blow fly; 50 × 1 mg/kg IR, Day 1, L, 24-hour exposure
  Percent Insecticide Mortality: 90%
Larval blow fly; 50 × 1 mg/kg IR, Day 1, L, 48-hour exposure
  Percent Insecticide Mortality: 100%
Larval blow fly; 50 × 1 mg/kg IR, Day 2, L, 24-hour exposure, 2880 min
  Percent Insecticide Mortality: 90%
Larval blow fly; 50 × 1 mg/kg IR, Day 2, L, 48-hour exposure
  Percent Insecticide Mortality: 100%
Larval blow fly; 50 × 1 mg/kg IR, Day 3, L, 24-hour exposure, 4320 min
  Percent Insecticide Mortality: 80%
Larval blow fly; 50 × 1 mg/kg IR, Day 3, L, 48-hour exposure
  Percent Insecticide Mortality: 100%
Larval blow fly; 50 × 1 mg/kg IR, Day 4, L, 24-hour exposure, 5760 min
  Percent Insecticide Mortality: 40%
Larval blow fly; 50 × 1 mg/kg IR, Day 4, L, 48-hour exposure
  Percent Insecticide Mortality: 40%
Larval blow fly; 50 × 1 mg/kg IR, Day 5, L, 24-hour exposure, 7200 min
  Percent Insecticide Mortality: 20%
Larval blow fly; 50 × 1 mg/kg IR, Day 5, L, 48-hour exposure
  Percent Insecticide Mortality: 25%
